Data taken from the SangsterLogP compilation.

Columns and labels:
[1] = method code SF-GLC, from DOI: 10.1007/s002679900238, PMID: 10486045
[2] = method code SF-AS, from PMID: 7646571; conditions: pH 7.0
[3] = method code SF, from DOI: 10.1248/cpb.42.1525, PMID: 7923475
[4] = method code SF-AS, from DOI: 10.1021/jm00212a022, PMID: 836502
[5] = method code …, from Kristl, A.; Vesnaver, G.; Mrhar, A.; Kozjek, F. (1993). Evaluation of partitioning and solubility data for some guanine derivatives in terms of mutual miscibility of octanol and water phase. …; conditions: pH 5.2
[6] = not given; remark: listed apart in the source
[7] = method code SF, from PMID: 7429676; conditions: pH 7.4
[8] = method code SF-HPLC, from DOI: 10.1124/dmd.30.12.1497, PMID: 12433825; conditions: pH 7.4
[9] = not given; remark: listed apart in the source
[10] = method code SF-AS, from DOI: 10.1211/0022357001773940, PMID: 10757413; conditions: pH 7.4
[11] = not given; remark: listed apart in the source
[12] = from Tehrany, E.A.; Desobry, S. (2005). Comparison between the different calculation methods of partition coefficient of aroma compounds with a difference chemical classes in octanol/water system. …
[13] = not given; remark: listed apart in the source
[14] = method code SF-GLC, from DOI: 10.1016/0045-6535(95)00311-u
[15] = method code SF-AS, from DOI: 10.1021/jf60167a006
[16] = not given; remark: listed apart in the source
[17] = method code SF-AS, from DOI: 10.2307/3575639, PMID: 7313077; conditions: pH 7.4
[18] = method code SF-AS, from DOI: 10.1081/jlc-100101494
[19] = method code SF-AS, from DOI: 10.1016/j.bmc.2011.10.017, PMID: 22094277; conditions: pH 7.4
[20] = method code SF-AS, from Korenman, Y. (1973). Extraction of p-halophenols. Zh. Prikl. Khim., 46(11)2754-2755.; conditions: pH 7.4
[21] = not given; remark: listed apart in the source
[22] = not given; remark: listed apart in the source
[23] = method code SF-CR, from PMID: 15170; conditions: pH 3.0
[24] = not given; remark: listed apart in the source
[25] = not given; remark: listed apart in the source
[26] = not given; remark: listed apart in the source
[27] = method code SF-HPLC, from DOI: 10.1002/jps.22717, PMID: 21837649; conditions: pH 7.4
[28] = method code SF-HPLC, from DOI: 10.3109/03639045.2012.690417, PMID: 22670797
[29] = method code SF-HPLC, from DOI: 10.1021/jm00109a018, PMID: 2033591; conditions: pH 7.0
[30] = method code SF-RC, from DOI: 10.1016/j.nucmedbio.2014.03.023, PMID: 24768149; conditions: pH 7.4
[31] = method code SF-AS, from DOI: 10.1016/s0090-9556(25)07961-9, PMID: 6130927
[32] = method code SF-AS, from DOI: 10.1021/jf60220a002
[33] = method code SF-AS, from PMID: 3774812; conditions: pH 4.0
[34] = method code SF, from DOI: 10.1016/0378-5173(90)90261-2; conditions: pH 3.0
[35] = method code SF-HPLC, from DOI: 10.1002/hlca.19880710534; conditions: pH 7.4
[36] = method code SF-AS, from DOI: 10.1021/jf60217a021, PMID: 659709
[37] = not given; remark: listed apart in the source
[38] = not given; remark: listed apart in the source
[39] = method code SF, from PMID: 23342302; conditions: pH 7.4
[40] = not given; remark: listed apart in the source
[41] = method code SF-RC, from DOI: 10.1021/jm00360a016, PMID: 6854590
[42] = not given; remark: listed apart in the source
[43] = method code SF, from PMID: 3261785
[44] = method code SF-AS, from Brown, J.; Yu, N.; Cory, M.; Bicknell, R.; Taylor, D. (1978). In vivo evaluation of the radiosensitizing and cytotoxic properties of newly synthesized electron-affinic drugs. 3, 206-211.
[45] = from Villegas-Navarro, A.; Rodriguez, M. (1984). Structure-activity relationships between quinone moieties and inhibition of sodium transport. In Kuchar, M. (Ed.) QSAR in Design of Bioactive Compounds. …
[46] = not given; remark: listed apart in the source
[47] = method code SF-AS, from DOI: 10.1016/0006-2952(80)90068-4, PMID: 6775639
[48] = method code SF-AS, from DOI: 10.1021/jf950378u
[49] = method code SF, from DOI: 10.1248/cpb.18.708; conditions: pH 6.4
[50] = not given; remark: listed apart in the source
[51] = method code SF-AS, from DOI: 10.1021/jm00128a017, PMID: 2754702; conditions: pH 7.4

**Q.** With `C=C(C)C1CCC(C)(O)C1C` (configuration not stated) as the molecule, how does the logP [1] read?
**A.** 2.87

**Q.** Which logD [2] does the source give for `Cn1c(=O)[nH]c2ncn(CC(C)(C)C)c2c1=O` here?
**A.** 0.6

**Q.** With `CC[C@@H]1C(=O)OC[C@@H]1Cc1cncn1C` as the molecule, how does the logP read?
**A.** 0.66

**Q.** For `CCCC(=O)c1ccccc1`, which logP [3] is on record?
**A.** 2.66

**Q.** Which logP [4] does the source give for `CCCOc1cc(N)ccc1C(=O)O` here?
**A.** 1.53

**Q.** For `CC(=O)Nc1nc2c(ncn2COCCO)c(=O)[nH]1`, which logD [5] is on record?
**A.** -1.3

**Q.** Which logP [6] does the source give for `O=C(O)CNC(=O)OCc1ccccc1` here?
**A.** 1.47

**Q.** For `CC(O)Cn1cnc2c1c(=O)n(C)c(=O)n2C` (configuration not stated), which logD [7] is on record?
**A.** -0.77

**Q.** For `CN1C(=O)CC(c2ccccc2)C1=O` (configuration not stated), which logD [8] is on record?
**A.** 0.68

**Q.** Which logP [9] does the source give for `Cc1noc(NS(=O)(=O)c2ccc(N)cc2)c1C` here?
**A.** 0.83

**Q.** For `Cc1c(O)c(=O)ccn1CCc1c[nH]cn1`, which logD [10] is on record?
**A.** -0.05

**Q.** Which logP [11] does the source give for `CCC1(CC(C)C)C(=O)NC(=O)NC1=O` here?
**A.** 1.69

**Q.** With `CCCCCCCCCC(=O)O` as the molecule, how does the logP [12] read?
**A.** 3.91

**Q.** Which logP [13] does the source give for `Cc1cn([C@H]2O[C@@H](CO)[C@H](O)[C@H]2F)c(=O)[nH]c1=O` here?
**A.** -0.51

**Q.** Which logP [14] does the source give for `CCCCCCCCC(Cl)C(Cl)(Cl)Cl` (configuration not stated) here?
**A.** 5.93

**Q.** Which logP [15] does the source give for `CCOP(=S)(OCC)Oc1ccccc1` here?
**A.** 3.46

**Q.** For `CCCCCOc1ccc(O)cc1`, which logP [16] is on record?
**A.** 3.26

**Q.** For `CN(C)C(=O)c1cc(N2CC2)c([N+](=O)[O-])cc1[N+](=O)[O-]`, which logD [17] is on record?
**A.** 0.63

**Q.** Which logP [18] does the source give for `CC1(Br)C(=O)NC(=O)N2C3CC(N=[N+]=[N-])C(COC21)O3` (configuration not stated) here?
**A.** 1.11

**Q.** With `CCCOC(=O)[C@@]1(C)[C@H](CO)CC=[N+]1[O-]` as the molecule, how does the logD [19] read?
**A.** -0.82

**Q.** With `C=CCC1(CC(=C)Br)C(=O)NC(=O)N(C)C1=O` (configuration not stated) as the molecule, how does the logD [20] read?
**A.** 1.78

**Q.** Which logP [21] does the source give for `CN(C)/N=N/c1ccc(CC(=O)O)cc1` here?
**A.** 1.38

**Q.** For `CCCCc1ccc(C(=O)O)cc1`, which logP [22] is on record?
**A.** 3.7

**Q.** For `CCc1nnc(NS(=O)(=O)c2ccc(N)cc2)s1`, which logD [23] is on record?
**A.** 1.01

**Q.** Which logP [24] does the source give for `COc1ccc(NC(=O)C2CC2)cn1` here?
**A.** 1.57

**Q.** With `C=C(C)C(=O)OC1CCCCC1` as the molecule, how does the logP [25] read?
**A.** 2.98

**Q.** For `CCNc1nc(NC(C)(C)C)nc(SC)n1`, which logP [26] is on record?
**A.** 3.43

**Q.** For `CCN1CCCc2cc(F)ccc21`, which logD [27] is on record?
**A.** 2.82

**Q.** With `CC(C)(C)c1ccc(NC(N)=S)cc1` as the molecule, how does the logP [28] read?
**A.** 2.6

**Q.** Which logD [29] does the source give for `Cc1nc2c(N)ncnc2n1[C@@H]1O[C@H](CO)C[C@@H]1F` here?
**A.** 0.1

**Q.** Which logD [30] does the source give for `FCCOC1CCC=CCCC1` (configuration not stated) here?
**A.** 1.68

**Q.** Which logP [31] does the source give for `CCC(N)Cc1ccccc1` (configuration not stated) here?
**A.** 2.28

**Q.** With `CCOP(N)(=O)O/N=C(/C#N)c1ccccc1` (configuration not stated) as the molecule, how does the logP [32] read?
**A.** 0.72

**Q.** For `Cc1c(CC(=O)O)sc2ccc(Cl)cc12`, which logD [33] is on record?
**A.** 3.12

**Q.** For `O=C(O)CCCc1ccccc1`, which logD [34] is on record?
**A.** 2.32

**Q.** For `C=CCC1(C(=O)NC(N)=O)CC(C)OC1=O` (configuration not stated), which logD [35] is on record?
**A.** 0.36

**Q.** With `COC(=O)N(C)SN(C)C(=O)O/N=C(\SC)C(=O)N(C)C` as the molecule, how does the logP [36] read?
**A.** -0.07

**Q.** For `C1COCCOCCOCCOCCO1`, which logP [37] is on record?
**A.** -0.48

**Q.** Which logP [38] does the source give for `CCC(Oc1ccc(Cl)cc1C)C(=O)O` (configuration not stated) here?
**A.** 3.47

**Q.** For `Nc1nc(=O)c2ncn(CCC(CO)CF)c2[nH]1` (configuration not stated), which logD [39] is on record?
**A.** -0.87

**Q.** Which logP [40] does the source give for `CN(C)C(=O)CNCc1ccccc1` here?
**A.** 1.11

**Q.** Which logP [41] does the source give for `O=c1ccc2ccc3occc3c2o1` here?
**A.** 2.08

**Q.** Which logP [42] does the source give for `NC12CC3CC(CC(C3)C1)C2` here?
**A.** 2.54

**Q.** For `Cc1c(I)c(=O)n(-c2ccccc2)n1C`, which logP [43] is on record?
**A.** 1.27

**Q.** For `CC(=O)OCC(Cn1ccnc1[N+](=O)[O-])OC(C)=O` (configuration not stated), which logP [44] is on record?
**A.** -0.05

**Q.** With `CC1=CC(=O)C(C(C)C)=CC1=O` as the molecule, how does the logP [45] read?
**A.** 2.2

**Q.** Which logP [46] does the source give for `Cc1[nH]cnc1CSCCNc1cc[nH]c(=O)n1` here?
**A.** -0.4

**Q.** With `CC1=CC(=O)c2ccccc2C1=O` as the molecule, how does the logP [47] read?
**A.** 1.88

**Q.** With `COC(=O)/C=C/c1ccc(O)c(OC)c1` as the molecule, how does the logP [48] read?
**A.** 1.2

**Q.** For `COc1ccc(NS(=O)(=O)c2ccc(N)cc2)nn1`, which logD [49] is on record?
**A.** 0.4

**Q.** Which logP [50] does the source give for `c1nnnn1C12CC3CC(CC(C3)C1)C2` here?
**A.** 2.95

**Q.** For `Nc1nc2c(ncn2C2CC(O)C(CO)O2)c(=O)[nH]1` (configuration not stated), which logD [51] is on record?
**A.** -1.3
